The values that follow come from US8575091B1, “Amylin analogues and pharmaceutical compositions thereof” (Novo Nordisk A/S, priority 2012, dated 2013).

Numbered stars: 1 amine (or outer) side, 2 acyl side, 3 side chain; on linkers, the order of the positions; unused ones are H or OH. Bridge positions count the residues as written; N and C are the ends. Side chains are listed from the residue outwards. Peptide text beside a SMILES is read from it. * marks the point of attachment. C20 diacid = O=C(O)CCCCCCCCCCCCCCCCCCC(=O)*; γGlu = O=C(O)[C@H](CCC(=O)[*:2])N[*:1]

In assay [1] the target is T1, human amylin receptor (amylin 3(a) receptor: human calcitonin receptor + RAMP-3) (Homo sapiens, UniProt O60896+P30988).
T1 construct: expressed in transfected cells
T1 sequence (P30988 25-474): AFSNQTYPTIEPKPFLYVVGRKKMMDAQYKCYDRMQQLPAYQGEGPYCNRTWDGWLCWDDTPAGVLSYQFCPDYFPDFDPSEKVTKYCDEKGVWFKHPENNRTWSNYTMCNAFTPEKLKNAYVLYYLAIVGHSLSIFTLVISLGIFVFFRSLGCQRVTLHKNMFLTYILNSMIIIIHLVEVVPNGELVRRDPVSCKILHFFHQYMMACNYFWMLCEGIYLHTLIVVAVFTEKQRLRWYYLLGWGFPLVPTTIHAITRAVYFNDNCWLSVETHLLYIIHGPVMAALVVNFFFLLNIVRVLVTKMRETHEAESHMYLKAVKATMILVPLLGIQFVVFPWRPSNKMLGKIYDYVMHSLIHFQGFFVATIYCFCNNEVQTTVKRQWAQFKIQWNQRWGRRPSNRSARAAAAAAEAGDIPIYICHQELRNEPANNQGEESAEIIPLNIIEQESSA
T1 sequence (O60896 24-148 partner): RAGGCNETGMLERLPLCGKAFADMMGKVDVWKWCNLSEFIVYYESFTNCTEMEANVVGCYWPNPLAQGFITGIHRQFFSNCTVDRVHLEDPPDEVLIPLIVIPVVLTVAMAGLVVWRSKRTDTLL
Briefly: Assay (II)a functional assay, human amylin receptor (CRE luciferase, BHK cells). Type of assay: cell-based. The settings on record: for EC50: functional assay, human amylin receptor, read-out: hAmylin-R funct. EC50.

Assay [2] addresses T2, human calcitonin receptor (Homo sapiens, UniProt P30988).
T2 construct: expressed in transfected cells
T2 sequence (P30988 25-474): T1 sequence (P30988 25-474)
Briefly: Assay (II)a functional assay, human calcitonin receptor (CRE luciferase, BHK cells).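 Note: luminescence from a CRE-driven luciferase reporter, read by single photon counting after cells were exposed to test samples for 3 h at 37 °C under 5% CO2.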 The settings on record: read-out: hCTR funct. EC50. It counts as cell-based.

For assay [3], the target named is T2, human calcitonin receptor. Briefly: Assay (VII) binding to the human calcitonin receptor (SPA, 125I-Calcitonin).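 Note: cell membranes coupled to SPA beads, competitive displacement read by scintillation counting, IC50 derived from a one-site competition fit as a measure of receptor affinity.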 The note with it: read-out: hCTR bind IC50.
In the next assay the target is T3, human amylin receptor (Homo sapiens, UniProt O60896+P30988).
T3 construct: expressed in transfected cells
T3 sequence (P30988 25-474): T1 sequence (P30988 25-474)
T3 sequence (O60896 24-148 partner): T1 sequence (O60896 24-148 partner)
Briefly: Assay (V) binding to the human amylin receptor (SPA, 125I-rat amylin). The settings on record: human amylin receptor membranes, SPA; read-out: hAmylin-R bind IC50. In short, it runs like this:
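IC50, taken as receptor affinity, came from one-site binding competition analysis of scintillation proximity counts. Amylin 3(a)/CRE-luc cell membranes (35 ng/μL final) were mixed with SPA beads (0.05 mg/well) in 50 mM Hepes pH 7.4 containing CaCl2, MgCl2, 0.1% OA and 0.02% Tween20.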

With `CC[C@H](C)[C@H](NC(=O)[C@H](C)NC(=O)CNC(=O)[C@H](Cc1ccccc1)NC(=O)[C@H](CC(N)=O)NC(=O)[C@@H]1CCCN1C(=O)[C@H](CO)NC(=O)[C@H](CO)NC(=O)[C@H](Cc1c[nH]cn1)NC(=O)[C@H](CCCNC(=N)N)NC(=O)[C@H](CC(C)C)NC(=O)[C@H](Cc1ccccc1)NC(=O)[C@H](Cc1c[nH]cn1)NC(=O)[C@H](C)NC(=O)[C@H](CC(C)C)NC(=O)[C@H](CCCNC(=N)N)NC(=O)[C@H](CCC(N)=O)NC(=O)[C@@H](NC(=O)[C@H](C)NC(=O)[C@@H]1CSSC[C@H](NC(=O)[C@H](CCCNC(=N)N)NC(=O)CNC(=O)CC[C@H](NC(=O)CCCCCCCCCCCCCCCCCCC(=O)O)C(=O)O)C(=O)N[C@@H](CC(N)=O)C(=O)N[C@@H]([C@@H](C)O)C(=O)N[C@@H](C)C(=O)N[C@@H]([C@@H](C)O)C(=O)N1)[C@@H](C)O)C(=O)N1CCC[C@H]1C(=O)N[C@@H](CO)C(=O)N[C@@H](CO)C(=O)N[C@H](C(=O)N[C@@H](CC(N)=O)C(=O)N[C@H](C(=O)NCC(=O)N1CCC[C@H]1C(=O)N[C@@H](CC(N)=O)C(=O)N[C@H](C(=O)N[C@@H](Cc1ccc(O)cc1)C(N)=O)[C@@H](C)O)C(C)C)[C@@H](C)O` [Example 102] ({C20 diacid-γGlu}-GRCNTATCATQRLAHFLRHSSPNFGAIPSSTNVGPNTY-NH2; disulfide 3-8), in assay [1] (Table 6, human functional selectivity (hCTR EC50 / hAmylin-R EC50)), the “Ratio hCT/hAmylin funct.” value amounted to 2.9. Besides, the figures for the EC50 in assay [1] and in assay [2] were 0.062 nM and 0.179 nM, respectively. Further, the IC50 in assay [3] came out at 7.86 nM; at human amylin receptor, 0.217 nM.

In the case of `CC[C@H](C)[C@H](NC(=O)[C@H](C)NC(=O)CNC(=O)[C@H](Cc1ccccc1)NC(=O)[C@H](CC(N)=O)NC(=O)[C@@H]1CCCN1C(=O)[C@H](CO)NC(=O)[C@H](CO)NC(=O)[C@H](Cc1c[nH]cn1)NC(=O)[C@H](CCCNC(=N)N)NC(=O)[C@H](CC(C)C)NC(=O)[C@H](Cc1ccccc1)NC(=O)[C@H](CCC(=O)O)NC(=O)[C@H](C)NC(=O)[C@H](CC(C)C)NC(=O)[C@H](CCCNC(=N)N)NC(=O)[C@H](CCC(N)=O)NC(=O)[C@@H](NC(=O)[C@H](C)NC(=O)[C@@H]1CSSC[C@H](NC(=O)[C@@H](N)CCCCNC(=O)CC[C@H](NC(=O)CC[C@H](NC(=O)CCCCCCCCCCCCCCCCCCC(=O)O)C(=O)O)C(=O)O)C(=O)N[C@@H](CC(N)=O)C(=O)N[C@@H]([C@@H](C)O)C(=O)N[C@@H](C)C(=O)N[C@@H]([C@@H](C)O)C(=O)N1)[C@@H](C)O)C(=O)N1CCC[C@H]1C(=O)N[C@@H](CO)C(=O)N[C@@H](CO)C(=O)N[C@H](C(=O)N[C@@H](CC(N)=O)C(=O)N[C@H](C(=O)NCC(=O)N[C@@H](Cc1c[nH]cn1)C(=O)N[C@@H](CCC(=O)O)C(=O)N[C@H](C(=O)N[C@@H](Cc1ccc(O)cc1)C(N)=O)[C@@H](C)O)C(C)C)[C@@H](C)O` [Example 104] (H-K([γGlu-γGlu-C20 diacid])CNTATCATQRLAEFLRHSSPNFGAIPSSTNVGHETY-NH2; disulfide 2-7), the EC50 in assay [1] stood at 0.445 nM; in assay [2] it was 7.05 nM. Also, the values for the IC50 (in assay [3]; at human amylin receptor) were 15.2 nM and 0.525 nM, respectively.
